These results are taken from patent publication US11685744B2, “CDK inhibitors and their use as pharmaceuticals” (Prelude Therapeutics, Incorporated, priority 2020, dated 2023).

The target in one assay is CDK4/Cyclin D1 (Homo sapiens (Human), UniProt P11802). Kind of assay: CDK4/CyclinD1 enzymatic activity assay (TR-FRET). The format is biochemical. The note with it: ATP 2 mM, read-out: CDK4_D1 IC50. The method, then:
CDK4/CyclinD1 Enzymatic Activity Assay
The inhibitory activity of compounds was evaluated in vitro using TR-FRET assay with white 384-well low volume microplate (Greiner Bio-One). CDK4/Cyclin D1 catalyzed phosphorylation of peptide in the presence and absence of compounds was measured. IC50 determination. Recombinant protein complex CDK4/Cyclin D1, expressed from insect cell, was purchased from ProQinase. Testing compounds were dissolved in DMSO at 0.1 mM and tested in 9-dose IC50 mode. The reaction mixture was prepared by mixing CDK4/CyclinD1 (1 nM final), ULight-4E-BP1 (100 nM final, Perkinelmer, TRF0128-D), and ATP (2 mM final) in assay buffer (20 mM of HEPES pH 7.4, 1 mM of EGTA, 0.05% BSA, 0.005% Tween 20, and 1 mM TCEP). The compound of interest in DMSO was added to each well in 3-fold serial dilution by dispenser (TECAN D300E). After 20 minutes preincubation at room temperature, MgCl2 (10 mM final) was added to initiate the reaction. Following a 60 minutes incubation at 37° C., the reaction was stopped by addition of 2 μL of quenching buffer consisting of Lance detection buffer (Perkinelmer CR97-100C), 2 nM LANCE Ultra Europium-anti-P-4E-BP1 (Perkinelmer, TRF0216-D), 10 mM EDTA, and incubate at room temperature for additional 60 minutes in dark. The reaction signal was measured by Envision multimode plate reader (PerkinElmer, 2102-0010). IC50 values were determined by fitting the data to the standard 4 parameters with Hill Slope using GraphPad Prism software.
Background: TR-FRET usually uses a lanthanide donor and a delayed reading to cut background.

Assay [1] deals with MCF7 adenocarcinoma cell line. The experiment in a line: Cell proliferation studies in MCF7 cells (ATP-Lite, 10 days). The format is cell-based. To be noted: Homo sapiens, 240 h, read-out: PROLIFERATION_CTG_MCF7 IC50. As for the experimental part:
Cell Proliferation Studies in MCF7 Cells
Cell proliferation studies were conducted in MCF7 adenocarcinoma cell line. Cells were maintained in DMEM (Coming, Catalog #: 10-013-CV) supplemented with 10% v/v FBS (Gibco, Catalog #: 26140-079), 1% v/v Penicillin Streptomycin (Gibco, Catalog #15140-122) Cells were seeded in 384-well plates at a density of 100 or 200 cells/well. Compounds dissolved in DMSO were plated in quadruplicate using a digital dispenser (D300E, Tecan) and tested on a 9-point 3-fold serial dilution. Cells were incubated for 10 days in a 37° C. active humidified incubator at 5% CO2. A media exchange and second compound addition were performed on day 5. Cell viability was measured using the ATP-Lite 1-Step Luminescence reagent (Perkin Elmer, Catalog #: 6016731) as per manufacturer's instructions. Luminescence signal was measured with a multimode plate reader (Envision 2105, Perkin Elmer). Raw data files were imported to Dotmatics Screening Ultra for IC50 analysis. Luminescence values were normalized to both background and DMSO controls to obtain a percentage of viable cells relative to DMSO vehicle control.

Chain of CDK4/Cyclin D1 (P11802 whole entry): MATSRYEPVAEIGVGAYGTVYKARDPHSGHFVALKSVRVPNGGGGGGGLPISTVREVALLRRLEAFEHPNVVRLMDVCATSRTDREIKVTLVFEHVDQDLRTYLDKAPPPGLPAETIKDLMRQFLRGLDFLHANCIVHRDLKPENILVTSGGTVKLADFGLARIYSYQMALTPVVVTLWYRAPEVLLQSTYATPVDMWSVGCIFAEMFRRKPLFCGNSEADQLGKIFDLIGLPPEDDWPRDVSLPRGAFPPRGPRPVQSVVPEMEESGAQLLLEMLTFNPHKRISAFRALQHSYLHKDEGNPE
Chain of CDK4/Cyclin D1 (P24385 whole entry partner): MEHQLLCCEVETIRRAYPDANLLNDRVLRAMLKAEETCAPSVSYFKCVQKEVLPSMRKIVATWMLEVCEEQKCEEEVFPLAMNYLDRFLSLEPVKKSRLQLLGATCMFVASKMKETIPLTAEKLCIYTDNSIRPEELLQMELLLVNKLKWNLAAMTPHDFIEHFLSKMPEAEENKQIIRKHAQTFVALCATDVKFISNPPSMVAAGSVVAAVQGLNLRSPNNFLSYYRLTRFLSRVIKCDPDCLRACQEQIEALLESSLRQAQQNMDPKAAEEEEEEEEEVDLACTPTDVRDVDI

For the compound `Cc1c(-c2nc(Nc3ccc(N4CCC(F)(F)C4)cn3)ncc2F)sc2c1nc(C)n2C1CCCC1` [Example 11, 4-(3-Cyclopentyl-2,6-dimethyl-3H-thieno[2,3-d]imidazol-5-yl)-N-(5-(3,3-difluoropyrrolidin-1-yl)pyridin-2-yl)-5-fluoro-pyrimidin-2-amine], the IC50 at CDK4/Cyclin D1 is 0.02 to 0.2 µM; in assay [1], 0.2 to 2 µM.

Take `Cc1nc2cc(-c3nc(Nc4ccc(N5CCN(C)CC5)cn4)ncc3F)sc2n1C1CCCC1` [Example 13, 4-(3-Cyclopentyl-2-methyl-3H-thieno[2,3-d]imidazol-5-yl)-5-fluoro-N-(5-(4-methylpiperazin-1-yl)pyridin-2-yl)pyrimidin-2-amine]: the IC50 at CDK4/Cyclin D1 is at most 0.02 µM; in assay [1], 0.02 to 0.2 µM.

Regarding `CCN1CCN(c2ccc(Nc3ncc(F)c(-c4cc5nccc(C(C)C)c5s4)n3)nc2)CC1` [Example 14, N-[5-(4-Ethylpiperazin-1-yl)pyridin-2-yl]-5-fluoro-4-(7-propan-2-ylthieno[3,2-b]pyridin-2-yl)pyrimidin-2-amine], the IC50 at CDK4/Cyclin D1 is at most 0.02 µM; in assay [1], 0.02 to 0.2 µM.

On to `CCN1CCN(c2ccc(Nc3ncc(F)c(-c4sc5c(C6CCCC6)ccnc5c4Cl)n3)nc2)CC1` [Example 16, 4-(3-Chloro-7-cyclopentylthieno[3,2-b]pyridin-2-yl)-N-[5-(4-ethylpiperazin-1-yl)pyridin-2-yl]-5-fluoropyrimidin-2-amine], for which the IC50 on CDK4/Cyclin D1 was at most 0.02 µM; in assay [1] it was 0.02 to 0.2 µM.

Regarding `CCN1CC2(C1)CN(c1ccc(Nc3ncc(F)c(-c4cc5nccc(C(C)(O)C(F)(F)F)c5s4)n3)nc1)C2` (centres unmarked) [Example 18, 2-[2-[2-[[5-(6-Ethyl-2,6-diazaspiro[3.3]heptan-2-yl)pyridin-2-yl]amino]-5-fluoropyrimidin-4-yl]thieno[3,2-b]pyridin-7-yl]-1,1,1-trifluoropropan-2-ol], the IC50 (on CDK4/Cyclin D1; in assay [1]) was 0.02 to 0.2 µM in each case.

Regarding `CCN1CCN(Cc2ccc(Nc3ncc(F)c(-c4cc5nccc(C(C)C)c5s4)n3)nc2)CC1` [Example 19, N-[5-[(4-Ethylpiperazin-1-yl)methyl]pyridin-2-yl]-5-fluoro-4-(7-propan-2-ylthieno[3,2-b]pyridin-2-yl)pyrimidin-2-amine], the IC50 at CDK4/Cyclin D1 lay in the range of 0.02 to 0.2 µM; in assay [1], 0.2 to 2 µM.

As to `CCN1CCC(c2ccc(Nc3ncc(F)c(-c4sc5c(C6CCCC6)ccnc5c4Cl)n3)nc2)CC1` [Example 20, 4-(3-Chloro-7-cyclopentylthieno[3,2-b]pyridin-2-yl)-N-[5-(1-ethylpiperidin-4-yl)pyridin-2-yl]-5-fluoropyrimidin-2-amine], the IC50 at CDK4/Cyclin D1 was at most 0.02 µM; in assay [1] it was 0.02 to 0.2 µM.

As for `CCN1CCN(Cc2ccc(Nc3ncc(F)c(-c4sc5c(C6CCCC6)ccnc5c4C)n3)nc2)CC1` [Example 22, 4-(7-Cyclopentyl-3-methylthieno[3,2-b]pyridin-2-yl)-N-(5-((4-ethylpiperazin-1-yl)methyl)pyridin-2-yl)-5-fluoropyrimidin-2-amine], the IC50 was in the range of 0.02 to 0.2 µM on CDK4/Cyclin D1 and 0.2 to 2 µM in assay [1].

`CCN1CCN(c2ccc(Nc3ncc(F)c(-c4cc5nccc(C6CCCC6)c5s4)n3)nc2)CC1` [Example 24, 4-(7-Cyclopentylthieno[3,2-b]pyridin-2-yl)-N-[5-(4-ethylpiperazin-1-yl)pyridin-2-yl]-5-fluoropyrimidin-2-amine]: the IC50 on CDK4/Cyclin D1 lay within 0.02 to 0.2 µM; in assay [1], 0.2 to 2 µM.

For the compound `CCN1CCN(Cc2ccc(Nc3ncc(F)c(-c4cc5nccc(C(C)(O)C(F)(F)F)c5s4)n3)nc2)CC1` (centres unmarked) [Example 25, 2-[2-[2-[[5-[(4-Ethylpiperazin-1-yl)methyl]pyridin-2-yl]amino]-5-fluoropyrimidin-4-yl]thieno[3,2-b]pyridin-7-yl]-1,1,1-trifluoropropan-2-ol], the IC50 (at CDK4/Cyclin D1; in assay [1]) was 0.02 to 0.2 µM each time.

For `Cc1c(-c2nc(Nc3ccc(C4CCN(C)CC4)cn3)ncc2F)sc2c(C3CCCC3)ccnc12` [Example 26, 4-(7-Cyclopentyl-3-methylthieno[3,2-b]pyridin-2-yl)-5-fluoro-N-(5-(1-methylpiperidin-4-yl)pyridin-2-yl)pyrimidin-2-amine], the IC50 at CDK4/Cyclin D1 is at most 0.02 µM; in assay [1], 0.02 to 0.2 µM.

Take `CCN1CCN(Cc2ccc(Nc3ncc(F)c(-c4cc5nccc(C(C)(C)O)c5s4)n3)nc2)CC1` [Example 27, 2-[2-[2-[[5-[(4-Ethylpiperazin-1-yl)methyl]pyridin-2-yl]amino]-5-fluoropyrimidin-4-yl]thieno[3,2-b]pyridin-7-yl]propan-2-ol]: the IC50 on CDK4/Cyclin D1 fell in the range of 0.02 to 0.2 µM; in assay [1], 0.2 to 2 µM.

Regarding `Cc1c(-c2nc(Nc3ccc(N4CCN(C)CC4)cn3)ncc2F)sc2c(C3CCCC3)ccnc12` [Example 28, 4-(7-Cyclopentyl-3-methylthieno[3,2-b]pyridin-2-yl)-5-fluoro-N-(5-(4-methylpiperazin-1-yl)pyridin-2-yl)pyrimidin-2-amine], the IC50 was in the range of 0.02 to 0.2 µM at CDK4/Cyclin D1 and 0.2 to 2 µM in assay [1].

Take `CCN1CCN(c2ccc(Nc3ncc(F)c(-c4cc5nccc(C(C)(O)C(F)(F)F)c5s4)n3)nc2)CC1` (centres unmarked) [Example 29, 2-[2-[2-[[5-(4-Ethylpiperazin-1-yl)pyridin-2-yl]amino]-5-fluoropyrimidin-4-yl]thieno[3,2-b]pyridin-7-yl]-1,1,1-trifluoropropan-2-ol]: the IC50 (on CDK4/Cyclin D1; in assay [1]) was 0.02 to 0.2 µM in each case.

Regarding `CCN1CCN(c2ccc(Nc3ncc(F)c(-c4sc5c(C6CCCC6)ccnc5c4C)n3)nc2)CC1` [Example 31, 4-(7-Cyclopentyl-3-methylthieno[3,2-b]pyridin-2-yl)-N-(5-(4-ethylpiperazin-1-yl)pyridin-2-yl)-5-fluoropyrimidin-2-amine], the IC50 on CDK4/Cyclin D1 fell in the range of 0.02 to 0.2 µM; in assay [1] it was 0.2 to 2 µM.

As to `Cc1c(-c2nc(Nc3ccc(N4CC5(CNC5)C4)cn3)ncc2F)sc2c(C3CCCC3)ccnc12` [Example 32, N-(5-(2,6-Diazaspiro[3.3]heptan-2-yl)pyridin-2-yl)-4-(7-cyclopentyl-3-methylthieno[3,2-b]pyridin-2-yl)-5-fluoropyrimidin-2-amine], the IC50 at CDK4/Cyclin D1 is at most 0.02 µM; in assay [1], 0.2 to 2 µM.

As to `CCN1CCN(Cc2ccc(Nc3ncc(F)c(-c4cc5nccc(C6CCCC6)c5s4)n3)nc2)CC1` [Example 33, 4-(7-Cyclopentylthieno[3,2-b]pyridin-2-yl)-N-[5-[(4-ethylpiperazin-1-yl)methyl]pyridin-2-yl]-5-fluoropyrimidin-2-amine], the IC50 is at most 0.02 µM on CDK4/Cyclin D1 and 0.2 to 2 µM in assay [1].

Take `CN1CCC(c2ccc(Nc3ncc(F)c(-c4cc5nccc(C6CCCC6)c5s4)n3)nc2)CC1` [Example 34, 4-(7-Cyclopentylthieno[3,2-b]pyridin-2-yl)-5-fluoro-N-(5-(1-methylpiperidin-4-yl)pyridin-2-yl)pyrimidin-2-amine]: the IC50 on CDK4/Cyclin D1 was at most 0.02 µM; in assay [1] it was 0.02 to 0.2 µM.

Take `Fc1cnc(Nc2ccc(N3CCNCC3)cn2)nc1-c1cc2nccc(C3CCCC3)c2s1` [Example 36, 4-(7-Cyclopentylthieno[3,2-b]pyridin-2-yl)-5-fluoro-N-(5-piperazin-1-ylpyridin-2-yl)pyrimidin-2-amine]: the IC50 at CDK4/Cyclin D1 was in the range of 0.02 to 0.2 µM; in assay [1], 0.2 to 2 µM.

For `CN1CCN(c2ccc(Nc3ncc(F)c(-c4cc5nccc(C6CCCC6)c5s4)n3)nc2)CC1` [Example 37, 4-(7-Cyclopentylthieno[3,2-b]pyridin-2-yl)-5-fluoro-N-[5-(4-methylpiperazin-1-yl)pyridin-2-yl]pyrimidin-2-amine], the IC50 was in the range of 0.02 to 0.2 µM at CDK4/Cyclin D1 and 0.2 to 2 µM in assay [1].

`Cc1c(-c2nc(Nc3ccc(N4CCOCC4)cn3)ncc2F)sc2c(C3CCCC3)ccnc12` [Example 38, 4-(7-Cyclopentyl-3-methylthieno[3,2-b]pyridin-2-yl)-5-fluoro-N-(5-morpholinopyridin-2-yl)pyrimidin-2-amine]: the IC50 was 0.02 to 0.2 µM at CDK4/Cyclin D1 and above 2 µM in assay [1].

Take `COC1CCN(c2ccc(Nc3ncc(F)c(-c4cc5nccc(C6CCCC6)c5s4)n3)nc2)CC1` [Example 39, 4-(7-Cyclopentylthieno[3,2-b]pyridin-2-yl)-5-fluoro-N-[5-(4-methoxypiperidin-1-yl)pyridin-2-yl]pyrimidin-2-amine]: the figures for the IC50 (on CDK4/Cyclin D1; in assay [1]) were 0.02 to 0.2 µM and 0.2 to 2 µM, respectively.
